Active and inactive are the calls of the source. The rule behind the calls is not given here.
System: CCRIS mutagenicity, Ames/micronucleus/aberration tests
Experiment: CCRIS mutagenicity studies
[1] = Test System: AMES SALMONELLA TYPHIMURIUM, Strain/Indicator: TA97, Metabolic Activation: NONE, Method: STANDARD PLATE
[2] = Test System: AMES SALMONELLA TYPHIMURIUM, Strain/Indicator: TA98, Metabolic Activation: NONE, Method: STANDARD PLATE

[N-]=[N+]=[N-]
mutagenic call [1]: inactive; negative
mutagenic call (Test System: AMES SALMONELLA TYPHIMURIUM, Strain/Indicator: TA97, Metabolic Activation: RAT, LIVER, S-9, AROCLOR 1254, Method: STANDARD PLATE): inactive; negative
mutagenic call (Test System: AMES SALMONELLA TYPHIMURIUM, Strain/Indicator: TA98, Metabolic Activation: HAMSTER, LIVER, S-9, AROCLOR 1254 (10%), Method: PREINCUBATION): inactive; negative
mutagenic call (Test System: AMES SALMONELLA TYPHIMURIUM, Strain/Indicator: TA98, Metabolic Activation: NONE, Method: PREINCUBATION): inactive; negative
mutagenic call (Test System: AMES SALMONELLA TYPHIMURIUM, Strain/Indicator: TA98, Metabolic Activation: NONE, Method: SPIRAL ASSAY): inactive; negative
mutagenic call [2]: inactive; negative
mutagenic call (Test System: AMES SALMONELLA TYPHIMURIUM, Strain/Indicator: TA98, Metabolic Activation: RAT, LIVER, S-9, ACRYLAMIDE, Method: STANDARD PLATE): active; positive
mutagenic call (Test System: AMES SALMONELLA TYPHIMURIUM, Strain/Indicator: TA98, Metabolic Activation: RAT, LIVER, S-9, AROCLOR 1254 (10%), Method: PREINCUBATION): inactive; negative
mutagenic call (Test System: AMES SALMONELLA TYPHIMURIUM, Strain/Indicator: TA98, Metabolic Activation: RAT, LIVER, S-9, AROCLOR 1254, Method: SPIRAL ASSAY): inactive; negative
mutagenic call (Test System: AMES SALMONELLA TYPHIMURIUM, Strain/Indicator: TA98, Metabolic Activation: RAT, LIVER, S-9, AROCLOR 1254, Method: STANDARD PLATE): inactive; negative
mutagenic call (Test System: AMES SALMONELLA TYPHIMURIUM, Strain/Indicator: TA100, Metabolic Activation: HAMSTER, LIVER, S-9, AROCLOR 1254 (10%), Method: PREINCUBATION): active; positive
mutagenic call (Test System: AMES SALMONELLA TYPHIMURIUM, Strain/Indicator: TA100, Metabolic Activation: NONE, Method: PREINCUBATION): active; positive
mutagenic call (Test System: AMES SALMONELLA TYPHIMURIUM, Strain/Indicator: TA100, Metabolic Activation: NONE, Method: SPIRAL ASSAY): active; positive
mutagenic call (Test System: AMES SALMONELLA TYPHIMURIUM, Strain/Indicator: TA100, Metabolic Activation: RAT, LIVER, S-9, ACRYLAMIDE, Method: STANDARD PLATE): active; positive
mutagenic call (Test System: AMES SALMONELLA TYPHIMURIUM, Strain/Indicator: TA100, Metabolic Activation: RAT, LIVER, S-9, AROCLOR 1254 (10%), Method: PREINCUBATION): active; positive
mutagenic call (Test System: AMES SALMONELLA TYPHIMURIUM, Strain/Indicator: TA100, Metabolic Activation: RAT, LIVER, S-9, AROCLOR 1254, Method: SPIRAL ASSAY): active; positive
mutagenic call (Test System: AMES SALMONELLA TYPHIMURIUM, Strain/Indicator: TA100, Metabolic Activation: RAT, LIVER, S-9, PCB, Method: PREINCUBATION): active; positive
mutagenic call (Test System: AMES SALMONELLA TYPHIMURIUM, Strain/Indicator: TA1530, Metabolic Activation: NONE, Method: STANDARD PLATE): active; positive
mutagenic call (Test System: AMES SALMONELLA TYPHIMURIUM, Strain/Indicator: TA1535, Metabolic Activation: HAMSTER, LIVER, S-9, AROCLOR 1254 (10%), Method: PREINCUBATION): active; positive
mutagenic call (Test System: AMES SALMONELLA TYPHIMURIUM, Strain/Indicator: TA1535, Metabolic Activation: NONE, Method: PREINCUBATION): active; positive
mutagenic call (Test System: AMES SALMONELLA TYPHIMURIUM, Strain/Indicator: TA1535, Metabolic Activation: NONE, Method: SPIRAL ASSAY): active; positive
mutagenic call (Test System: AMES SALMONELLA TYPHIMURIUM, Strain/Indicator: TA1535, Metabolic Activation: NONE, Method: STANDARD PLATE): active; positive
mutagenic call (Test System: AMES SALMONELLA TYPHIMURIUM, Strain/Indicator: TA1535, Metabolic Activation: RAT, LIVER, S-9, AROCLOR 1254 (10%), Method: PREINCUBATION): active; positive
mutagenic call (Test System: AMES SALMONELLA TYPHIMURIUM, Strain/Indicator: TA1535, Metabolic Activation: RAT, LIVER, S-9, AROCLOR 1254, Method: SPIRAL ASSAY): active; positive
mutagenic call (Test System: AMES SALMONELLA TYPHIMURIUM, Strain/Indicator: TA1535, Metabolic Activation: RAT, LIVER, S-9, AROCLOR 1254, Method: STANDARD PLATE): active; positive
mutagenic call (Test System: AMES SALMONELLA TYPHIMURIUM, Strain/Indicator: TA1537, Metabolic Activation: HAMSTER, LIVER, S-9, AROCLOR 1254 (10%), Method: PREINCUBATION): inactive; negative
mutagenic call (Test System: AMES SALMONELLA TYPHIMURIUM, Strain/Indicator: TA1537, Metabolic Activation: NONE, Method: PREINCUBATION): inactive; negative
mutagenic call (Test System: AMES SALMONELLA TYPHIMURIUM, Strain/Indicator: TA1537, Metabolic Activation: NONE, Method: STANDARD PLATE): inactive; negative
mutagenic call (Test System: AMES SALMONELLA TYPHIMURIUM, Strain/Indicator: TA1537, Metabolic Activation: RAT, LIVER, S-9, AROCLOR 1254 (10%), Method: PREINCUBATION): inactive; negative
mutagenic call (Test System: AMES SALMONELLA TYPHIMURIUM, Strain/Indicator: TA1537, Metabolic Activation: RAT, LIVER, S-9, AROCLOR 1254, Method: STANDARD PLATE): inactive; negative
mutagenic call (Test System: AMES SALMONELLA TYPHIMURIUM, Strain/Indicator: TA1538, Metabolic Activation: HAMSTER, LIVER, S-9, AROCLOR 1254 (10%), Method: PREINCUBATION): inactive; negative
mutagenic call (Test System: AMES SALMONELLA TYPHIMURIUM, Strain/Indicator: TA1538, Metabolic Activation: NONE, Method: PREINCUBATION): inactive; negative
mutagenic call (Test System: AMES SALMONELLA TYPHIMURIUM, Strain/Indicator: TA1538, Metabolic Activation: RAT, LIVER, S-9, AROCLOR 1254 (10%), Method: PREINCUBATION): inactive; negative
mutagenic call (Test System: Ames Salmonella typhimurium, Strain/Indicator: TA1975P, Metabolic Activation: None, Method: Preincubation): active; positive (at higher doses)
mutagenic call (Test System: E. COLI, Strain/Indicator: AB2500, Metabolic Activation: NONE, Method: STANDARD PLATE): inactive; negative
mutagenic call (Test System: E. COLI, Strain/Indicator: WP2 UVRA, Metabolic Activation: HAMSTER, LIVER, S-9, AROCLOR 1254, Method: STANDARD PLATE): inactive; negative
mutagenic call (Test System: E. COLI, Strain/Indicator: WP2 UVRA, Metabolic Activation: HAMSTER, LIVER, S-9, Method: STANDARD PLATE): inactive; negative
mutagenic call (Test System: E. COLI, Strain/Indicator: WP2 UVRA, Metabolic Activation: MOUSE, LIVER, S-9, AROCLOR 1254, Method: STANDARD PLATE): inactive; negative
mutagenic call (Test System: E. COLI, Strain/Indicator: WP2 UVRA, Metabolic Activation: MOUSE, LIVER, S-9, Method: STANDARD PLATE): inactive; negative
mutagenic call (Test System: E. COLI, Strain/Indicator: WP2 UVRA, Metabolic Activation: NONE, Method: STANDARD PLATE): inactive; negative
mutagenic call (Test System: E. COLI, Strain/Indicator: WP2 UVRA, Metabolic Activation: RAT, LIVER, S-9, AROCLOR 1254, Method: STANDARD PLATE): inactive; negative
mutagenic call (Test System: E. COLI, Strain/Indicator: WP2 UVRA, Metabolic Activation: RAT, LIVER, S-9, Method: STANDARD PLATE): inactive; negative
mutagenic call (Test System: MOUSE LYMPHOMA, Strain/Indicator: L5178Y (TK+/TK-), Metabolic Activation: NONE, Method: SUSPENSION/PLATE): active; positive

O=C1c2ccccc2C(=O)N1SC1CCCCC1
mutagenic call [1]: inactive; negative
mutagenic call (Test System: AMES SALMONELLA TYPHIMURIUM, Strain/Indicator: TA97, Metabolic Activation: RAT LIVER S-9, DELOR 103 (4% OR 10%), Method: STANDARD PLATE): inactive; negative
mutagenic call [2]: inactive; negative
mutagenic call (Test System: AMES SALMONELLA TYPHIMURIUM, Strain/Indicator: TA98, Metabolic Activation: RAT LIVER S-9, DELOR 103 (4% OR 10%), Method: STANDARD PLATE): inactive; negative
mutagenic call (Test System: AMES SALMONELLA TYPHIMURIUM, Strain/Indicator: TA100, Metabolic Activation: NONE, Method: STANDARD PLATE): inactive; negative
mutagenic call (Test System: AMES SALMONELLA TYPHIMURIUM, Strain/Indicator: TA100, Metabolic Activation: RAT LIVER S-9, DELOR 103 (4% OR 10%), Method: STANDARD PLATE): inactive; negative
mutagenic call (Test System: AMES SALMONELLA TYPHIMURIUM, Strain/Indicator: TA102, Metabolic Activation: NONE, Method: STANDARD PLATE): inactive; negative
mutagenic call (Test System: AMES SALMONELLA TYPHIMURIUM, Strain/Indicator: TA102, Metabolic Activation: RAT LIVER S-9, DELOR 103 (4% OR 10%), Method: STANDARD PLATE): inactive; negative
